Measured values reported in patent EP4810508A1, “ARABINOSE DERIVATIVE COMPOUND, AND COMPOSITION COMPRISING SAME FOR PREVENTING OR TREATING DEGENERATIVE BRAIN DISEASES” (Digmbio. Inc., priority 2023, dated 2025).

Test system: HRE/Luc/HEK293 cells
Assay: HRE (Hypoxia Response Element) luciferase assay
Format: cell-based, human
Settings: for fold induction at 10 µM / fold induction at 100 µM: Homo sapiens, HEK293, 18 h, Table 2 (Examples 75-109, 114); for fold induction at 10 µM: read-out: HRE-inceasing 10uM; for fold induction at 100 µM: read-out: HRE-inceasing 100uM; for HRE expression: low concentration of 1 µM
Protocol: • (a) HRE assay: Confirmation of increased in HRE expression levels by the test substance relative to the vehicle in HRE/Luc/HEK293 cells • * Less than a twofold increase at 100 µM, • ** More than a twofold increase at 100 µM, • *** More than a twofold increase at 10 µM, • **** More than a twofold increase at 1 µM, • Not performed.
It has been reported that in the brains of AD patients, blood supply is mostly insufficient, resulting in oxygen levels being up to 50% lower than those of normal individuals, leading to increased oxidative stress (ROS) and neuroinflammation. It has also been studied that when the HIF-1α (hypoxia inducible factor-1) factor binds to the HRE (hypoxia response element), it increases VEGF (vascular endothelial growth factor), which promotes the formation of new blood vessels, thereby increasing oxygen levels in the brain and helping to inhibit nerve cell damage.
A reporter gene containing luciferase, capable of verifying the level of HRE expression, was inserted into HEK-293 human embryonic kidney cells, and HRE/Luc/HEK293 cells were constructed by inserting a plasmid (HRE/Luc) with luciferase attached downstream of the HRE promoter that binds to HIF-1α using lipofectamine (Invitrogen).
To perform HRE luciferase analysis, HRE/Luc/HEK293 cells were seeded in 96-well culture plates at a cell density of 4 x 10^4 per well in minimal essential medium (MEM) containing 10% fetal bovine serum. After one day, the cell medium was removed and replaced with medium mixed with various concentrations of example compounds. Six hours after compound pretreatment, HRE/Luc/HEK293 cells were cultured under hypoxic conditions (O2 0.1%) for 18 hours. Subsequently, the cells were washed with phosphate buffer, lysed with lysis buffer, and then the luciferase reagent (Promega) for luciferase analysis was added. Afterward, changes in HRE expression levels associated with HIF-1 signaling were evaluated by measuring luminescence using an Infinite200 (Tecan).

Work on `O[C@@H]1[C@@H](O)[C@H](Oc2ccc(CN3CCCC3)cc2)OC[C@@H]1O` [Example 75, (2S,3R,4S,5S)-2-(4-(pyrrolidin-1-ylmethyl)phenoxy)tetrahydro-2H-pyran-3,4,5-triol] yielded a fold induction at 10 µM of 1 and a fold induction at 100 µM of 1.

`O[C@@H]1[C@@H](O)[C@H](Oc2ccc(CN3CCOCC3)cc2)OC[C@@H]1O` [Example 76, (2S,3R,4S,5S)-2-(4-(morpholinomethyl)phenoxy)tetrahydro-2H-pyran-3,4,5-triol] showed a fold induction at 10 µM of less than 1 and a fold induction at 100 µM of 1.

`COc1ccc(Cc2ccc(O[C@H]3OC[C@H](O)[C@H](O)[C@H]3N=[N+]=[N-])cc2)cc1` [Example 77, (3S,4R,5R,6R)-5-azido-6-(4-(4-methoxybenzyl)phenoxy)tetrahydro-2H-pyran-3,4-diol] was tested, and the fold induction at 10 µM was 1 and the fold induction at 100 µM was 1.3.

With `COc1ccc(Cc2ccc(O[C@H]3OC[C@H](O)[C@H](O)[C@H]3N)cc2)cc1` [Example 78] the fold induction at 10 µM was 12 and the fold induction at 100 µM was 2.4.

`COc1ccc(Cc2ccc(O[C@H]3OC[C@H](O)[C@H](O)[C@H]3OC(=O)CCCCCCCCCN)cc2)cc1` [Example 79, (2R,3R,4S,5S)-4,5-dihydroxy-2-(4-(4-methoxybenzyl)phenoxy)tetrahydro-2H-pyran-3-yl 10-aminodecanoate] showed a fold induction at 10 µM of 1 and a fold induction at 100 µM of 1.7.

For `COc1ccc2cc(-c3ccc(O[C@H]4OC[C@H](O)[C@H](O)[C@H]4O)cc3)oc2c1` [Example 81, (2R,3R,4S,5S)-2-(4-(6-methoxybenzofuran-2-yl)phenoxy)tetrahydro-2H-pyran-3,4,5-triol], the fold induction at 10 µM was 2.7 and the fold induction at 100 µM was 3.6.

`COc1ccc2c(ccn2-c2ccc(O[C@H]3OC[C@H](O)[C@H](O)[C@H]3O)cc2)c1` [Example 82, (2R,3R,4S,5S)-2-(4-(5-methoxy-1H-indol-1-yl)phenoxy)tetrahydro-2H-pyran-3,4,5-triol] showed a fold induction at 10 µM of 1.4 and a fold induction at 100 µM of 2.3.

`COc1ccc2c(ccn2-c2ccc(O[C@@H]3OC[C@H](O)[C@H](O)[C@H]3O)cc2)c1` [Example 83, (2S,3R,4S,5S)-2-(4-(5-methoxy-1H-indol-1-yl)phenoxy)tetrahydro-2H-pyran-3,4,5-triol] gave a fold induction at 10 µM of 2.2 and a fold induction at 100 µM of 3.3.

`COc1ccc(-c2ccc(O[C@H]3OC[C@H](O)[C@H](O)[C@H]3O)cc2)cc1` [Example 84, (2R,3R,4S,5S)-2-((4'-methoxy-[1,1'-biphenyl]-4-yl)oxy)tetrahydro-2H-pyran-3,4,5-triol] showed a fold induction at 10 µM of 2.5 and a fold induction at 100 µM of 3.5.

`COc1ccc(-c2ccc(O[C@H]3OC[C@H](O)[C@H](O)[C@H]3O)cc2)cn1` [Example 85, (2R,3R,4S,5S)-2-(4-(6-methoxypyridin-3-yl)phenoxy)tetrahydro-2H-pyran-3,4,5-triol] was tested, and the fold induction at 10 µM was 1.3 and the fold induction at 100 µM was 2.6.

Compound `CC(C)c1ccc(-c2ccc(O[C@H]3OC[C@H](O)[C@H](O)[C@H]3O)cc2)cc1` [Example 86, (2R,3R,4S,5S)-2-((4'-isopropyl-[1,1'-biphenyl]-4-yl)oxy) tetrahydro-2 H-pyran-3,4,5-triol] has a fold induction at 10 µM of 1.9 and a fold induction at 100 µM of 3.2.

`CC(C)c1ccc(-c2ccc(O[C@@H]3OC[C@H](O)[C@H](O)[C@H]3O)cc2)cc1` [Example 87, (2S,3R,4S,5S)-2-((4'-isopropyl-[1,1'-biphenyl]-4-yl)oxy)tetrahydro-2H-pyran-3,4,5-triol] gave a fold induction at 10 µM of 2.4 and a fold induction at 100 µM of 3.1.

For `CC(C)c1ccc2nc(-c3ccc(O[C@H]4OC[C@H](O)[C@H](O)[C@H]4O)cc3)oc2c1` [Example 88, (2R,3R,4S,5S)-2-(4-(6-isopropylbenzo[d]oxazol-2-yl)phenoxy)tetrahydro-2H-pyran-3,4,5-triol], the fold induction at 10 µM was 1.7 and the fold induction at 100 µM was 3.1.

In the case of `CC(C)c1ccc2nc(-c3ccc(O[C@@H]4OC[C@H](O)[C@H](O)[C@H]4O)cc3)oc2c1` [Example 89, (2S,3R,4S,5S)-2-(4-(6-isopropylbenzo[d]oxazol-2-yl)phenoxy)tetrahydro-2H-pyran-3,4,5-triol], the fold induction at 10 µM is reported as 2.8 and the fold induction at 100 µM is reported as less than 1.

Work on `Cc1ccc2c(ccn2-c2ccc(O[C@H]3OC[C@H](O)[C@H](O)[C@H]3O)cc2)c1` [Example 90, (2R,3R,4S,5S)-2-(4-(5-methyl-1H-indol-1-yl)phenoxy)tetrahydro-2H-pyran-3,4,5-triol] yielded a fold induction at 10 µM of 1.7 and a fold induction at 100 µM of 2.4.

In the case of `COc1ccc2oc(-c3ccc(O[C@H]4OC[C@H](O)[C@H](O)[C@H]4O)cc3)nc2c1` [Example 91, (2R,3R,4S,5S)-2-(4-(5-methoxybenzo[d]oxazol-2-yl)phenoxy)tetrahydro-2H-pyran-3,4,5-triol], the fold induction at 10 µM is reported as 2.4 and the fold induction at 100 µM is reported as 2.8.

In the case of `COc1ccc2oc(-c3ccc(O[C@@H]4OC[C@H](O)[C@H](O)[C@H]4O)cc3)nc2c1` [Example 92, (2S,3R,4S,5S)-2-(4-(5-methoxybenzo[d]oxazol-2-yl)phenoxy)tetrahydro-2H-pyran-3,4,5-triol], the fold induction at 10 µM is reported as 3, the fold induction at 100 µM is reported as 1.6 and the HRE expression is reported as “more than threefold”.

`COc1ccc2oc(-c3ccc(O[C@H]4OC[C@@H](O)[C@H](O)[C@H]4O)cc3)nc2c1` [Example 93, (2R,3R,4S,5R)-2-(4-(5-methoxybenzo[d]oxazol-2-yl)phenoxy)tetrahydro-2H-pyran-3,4,5-triol] was tested, and the fold induction at 10 µM was 2.8 and the fold induction at 100 µM was 2.3.

In the case of `COc1ccc2oc(-c3ccc(O[C@@H]4OC[C@@H](O)[C@H](O)[C@H]4O)cc3)nc2c1` [Example 94, (2S,3R,4S,5R)-2-(4-(5-methoxybenzo[d]oxazol-2-yl)phenoxy)tetrahydro-2H-pyran-3,4,5-triol], the fold induction at 10 µM is reported as 3, the fold induction at 100 µM is reported as 2.2 and the HRE expression is reported as “more than threefold”.

Compound `CCc1ccc2c(-c3ccc(O[C@H]4OC[C@H](O)[C@H](O)[C@H]4O)cc3)coc2c1` [Example 95, (2R,3R,4S,5S)-2-(4-(6-ethylbenzofuran-3-yl)phenoxy) tetrahydro-2H-pyra-3,4,5-triol] has a fold induction at 10 µM of 2.6 and a fold induction at 100 µM of 3.1.

For `CCc1ccc2c(-c3ccc(O[C@@H]4OC[C@H](O)[C@H](O)[C@H]4O)cc3)coc2c1` [Example 96, (2S,3R,4S,5S)-2-(4-(6-ethylbenzofuran-3-yl)phenoxy)tetrahydro-2H-pyran-3,4,5-triol], the fold induction at 10 µM was 2.6 and the fold induction at 100 µM was 2.9.

`CC(C)c1cccc2nc(-c3cccc(O[C@H]4OC[C@H](O)[C@H](O)[C@H]4O)c3)oc12` [Example 97, (2R,3R,4S,5S)-2-(3-(7-isopropylbenzo[d]oxazol-2-yl)phenoxy)tetrahydro-2H-pyran-3,4,5-triol] showed a fold induction at 10 µM of 1.1 and a fold induction at 100 µM of 1.2.

`CC(C)c1cccc2nc(-c3cccc(O[C@@H]4OC[C@H](O)[C@H](O)[C@H]4O)c3)oc12` [Example 98, (2S,3R,4S,5S)-2-(3-(7-isopropylbenzo[d]oxazol-2-yl)phenoxy)tetrahydro-2H-pyran-3,4,5-triol] showed a fold induction at 10 µM of 1.1 and a fold induction at 100 µM of 1.4.

With `Cc1ccc2oc(-c3ccc(O[C@H]4OC[C@H](O)[C@H](O)[C@H]4O)c(Cl)c3)nc2c1` [Example 99, (2R,3R,4S,5S)-2-(2-chloro-4-(5-methylbenzo [d]oxazol-2-yl)phenoxy)tetrahydro-2H-pyran-3,4,5-triol] the fold induction at 10 µM was 2.8 and the fold induction at 100 µM was 3.6.

Compound `Cc1ccc2oc(-c3ccc(O[C@@H]4OC[C@H](O)[C@H](O)[C@H]4O)c(Cl)c3)nc2c1` [Example 100, (2S,3R,4S,5S)-2-(2-chloro-4-(5-methylbenzo[d]oxazol-2-yl)phenoxy) tetrahydro-2H-pyran-3,4,5-triol] has a fold induction at 10 µM of 2.7 and a fold induction at 100 µM of 2.4.

`CC(C)c1ccc(Oc2ccc(O[C@H]3OC[C@@H](O)[C@H](O)[C@H]3O)c(F)c2)cc1` [Example 101, (2R,3R,4S,5R)-2-(2-fluoro-4-(4-isopropylphenoxy)phenoxy)tetrahydro-2H-pyran-3,4,5-triol] was tested, and the fold induction at 10 µM was 3.7 and the fold induction at 100 µM was 2.5.

In the case of `COc1ccc2oc(-c3ccc(O[C@@H]4OC[C@H](O)[C@H](O)[C@H]4O)c(Cl)c3)nc2c1` [Example 102, (2S,3R,4S,5S)-2-(2-chloro-4-(5-methoxybenzo[d]oxazol-2-yl)phenoxy)tetrahydro-2H-pyran-3,4,5-triol], the fold induction at 10 µM is reported as 3.1, the fold induction at 100 µM is reported as 1.8 and the HRE expression is reported as “more than threefold”.

`COc1ccc2oc(-c3ccc(O[C@H]4OC[C@H](O)[C@H](O)[C@H]4O)c(Cl)c3)nc2c1` [Example 103, (2R,3R,4S,5S)-2-(2-chloro-4-(5-methoxybenzo[d]oxazol-2-yl)phenoxy)tetrahydro-2H-pyran-3,4,5-triol] showed a fold induction at 10 µM of 2.6 and a fold induction at 100 µM of 2.9.
